Target: IDO1 (Homo sapiens, UniProt P14902)
Assay: IDO1 Cellular Assay in HeLa Cells Stimulated with IFNγ
Assay type: cell-based
Settings: read-out: HeLa Cell Potency, IC50

IDO1, sequence (P14902 whole entry): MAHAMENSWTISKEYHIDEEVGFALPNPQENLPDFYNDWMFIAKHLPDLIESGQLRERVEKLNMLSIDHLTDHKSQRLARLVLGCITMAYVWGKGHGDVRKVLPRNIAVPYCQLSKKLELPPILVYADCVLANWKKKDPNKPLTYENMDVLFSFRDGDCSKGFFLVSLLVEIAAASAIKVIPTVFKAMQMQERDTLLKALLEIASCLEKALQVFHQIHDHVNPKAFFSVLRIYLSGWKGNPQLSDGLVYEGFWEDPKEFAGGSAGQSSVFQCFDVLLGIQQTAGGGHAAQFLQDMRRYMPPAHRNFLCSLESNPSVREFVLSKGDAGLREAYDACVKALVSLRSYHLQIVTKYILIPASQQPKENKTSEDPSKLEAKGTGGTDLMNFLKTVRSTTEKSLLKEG

SMILES	IC50 [nM]
Cc1cccc(N2CCN(C(=O)Cn3nc(C(=O)N4CC[C@H](O)[C@@H](F)C4)c4c3C(O)CC4)CC2)c1C (stereo partly drawn) [Example 420, 1-(4-(2,3-dimethylphenyl)piperazin-1-yl)-2-(3-((3 S,4 S)-3-fluoro-4-hydroxypiperidine-1-carbonyl)-6-hydroxy-5,6-dihydrocyclopenta[c]pyrazol-1(4H)-yl)ethan-1-one]	87.4
O=C(Cn1nc(C(=O)N2CC[C@H](O)[C@@H](F)C2)c2c1CCC2)N1CCN(C2CCCc3ccccc32)CC1 (stereo partly drawn) [Example 433, 2-(3-((3S,4S)-3-fluoro-4-hydroxypiperidine-1-carbonyl)-5,6-dihydrocyclopenta[c]pyrazol-1(4H)-yl)-1-(4-(1,2,3,4-tetrahydronaphthalen-1-yl)piperazin-1-yl)ethanone]	494
O=C(Cn1nc(C(=O)N2CC[C@H](O)[C@@H](F)C2)c2c1CCC2)N1CCN(C2CCCc3ccccc32)CC1 (stereo partly drawn) [Example 434, 2-(3-((3S,4S)-3-fluoro-4-hydroxypiperidine-1-carbonyl)-5,6-dihydrocyclopenta[c]pyrazol-1(4H)-yl)-1-(4-(1,2,3,4-tetrahydronaphalen-1-yl)piperazin-1-yl)ethanone]	8050
O=C(Cn1nc(C(=O)N2CCC(O)CC2)c2c1CCC2)N1CCN(C2CCc3ccccc32)CC1 (stereo not drawn) [Example 435, 1-(4-(2,3-dihydro-1H-inden-1-yl)piperazin-1-yl)-2-(3-(4-hydroxypiperidine-1-carbonyl)-5,6-dihydrocyclopenta[c]pyrazol-1(4H)-yl)ethanone]	264
O=C(Cn1nc(C(=O)N2CCC(O)(CF)CC2)c2c1CCC2)N1CCN(c2cccc3c(F)cccc23)CC1 [Example 444, 2-(3-(4-(fluoromethyl)-4-hydroxypiperidine-1-carbonyl)-5,6-dihydrocyclopenta[c]pyrazol-1(4H)-yl)-1-(4-(5-fluoronaphthalen-1-yl)piperazin-1-yl)ethan-1-one]	298
CC(=O)NC1CCN(C(=O)c2nn(CC(=O)N3CCN(c4cccc(C)c4Cl)CC3)c3c2CCCC3)CC1 [Example 453, N-(1-(1-(2-(4-(2-chloro-3-methylphenyl)piperazin-1-yl)-2-oxoethyl)-4,5,6,7-tetra hydro-1H-indazole-3-carbonyl)piperidin-4-yl) acetamide]	0.59
Cc1cccc(N2CCN(C(=O)Cn3nc(C(=O)N4CCC(O)(CO)CC4)c4c3CCCC4)CC2)c1C [Example 455, 1-(4-(2,3-dimethylphenyl)piperazin-1-yl)-2-(3-(4-hydroxy-4-(hydroxymethyl)piperidine-1-carbonyl)-4,5,6,7-tetrahydro-1H-indazol-1-yl)ethanone]	3.32
Cc1c(F)ccc(N2CCN(C(=O)Cn3nc(C(=O)N4CCC(F)(CO)CC4)c4c3CCCC4)CC2)c1C [Example 458, 1-(4-(4-fluoro-2,3-dimethylphenyl)piperazin-1-yl)-2-(3-(4-fluoro-4-(hydroxy-methyl)piperidine-1-carbonyl)-4,5,6,7-tetrahydro-1H-indazol-1-yl)ethanone]	0.95
Cc1cccc(N2CCN(C(=O)Cn3nc(C(=O)N4CCC(O)CC4(C)C)c4c3CCCC4)CC2)c1C (stereo not drawn) [Example 461, 1-(4-(2,3-dimethylphenyl)piperazin-piperazin-1-yl)-2-(3-(4-hydroxy-2,2-dimethylpiperidine-1-carbonyl)-4,5,6,7-tetrahydro-1H-indazol-1-yl)ethanone]	1.25
Cc1cccc(N2CCN(C(=O)Cn3nc(C(=O)N4CCC(F)(CO)CC4)c4c3CCCC4)CC2)c1C [Example 467, 1-(4-(2,3-dimethylphenyl)piperazin-1-yl)-2-(3-(4-fluoro-4-(hydroxymethyl)piperidine-1-carbonyl)-4,5,6,7-tetrahydro-1H-indazol-1-yl)ethanone]	1.87
Cc1cccc(N2CCN(C(=O)Cn3nc(C(=O)N4CCC(NC(=O)OC(C)(C)C)CC4)c4c3CCCC4)CC2)c1C [Example 469, tert-butyl (1-(1-(2-(4-(2,3-dimethylphenyl)piperazin-1-yl)-2-oxoethyl)-4,5,6,7-tetrahydro-1H-indazole-3-carbonyl)piperidin-4-yl) carbamate]	2.48
Cc1cccc(N2CCN(C(=O)Cn3nc(C(=O)N4CCC(O)(CF)CC4)c4c3CCC4)CC2)c1C [Example 481, 1-(4-(2,3-dimethylphenyl)piperazin-1-yl)-2-(3-(4-(fluoromethyl)-4-hydroxypiperidine-1-carbonyl)-5,6-dihydrocyclopenta[c]pyrazol-1(4H)-yl) ethanone]	10.6
Cc1c(F)cccc1N1CCN(C(=O)Cn2nc(C(=O)N3CCC(O)CC3)c3c2CCC3)CC1 [Example 483, 1-(4-(3-fluoro-2-methylphenyl)piperazin-1-yl)-2-(3-(4-hydroxypiperidine-1-carbonyl)-5,6-dihydrocyclopenta[c]pyrazol-1(4H)-yl) ethanone]	41.6
Cc1cccc(N2CCN(C(=O)Cn3nc(C(=O)N4CCC(O)(CF)C4)c4c3CCC4)CC2)c1C (stereo not drawn) [Example 485, 1-(4-(2,3-dimethylphenyl)piperazin-1-yl)-2-(3-(3-(fluoromethyl)-3-hydroxypyrrolidine-1-carbonyl)-5,6-dihydro-cyclopenta[c]pyrazol-1(4H)-yl)ethanone]	47.5
Cc1ccccc1N1CCN(C(=O)Cn2nc(C(=O)N3C[C@@H](C)O[C@@H](C)C3)c3c2CCC3)CC1 [Example 487, 2-(3-((2S,6R)-2,6-dimethylmorpholine-4-carbonyl)-5,6-dihydro-cyclopenta[c]pyrazol-1(4H)-yl)-1-(4-(o-tolyl)piperazin-1-yl)ethanone,]	51.4

More lines, now with the values ahead:

IC50 [nM]	SMILES
5.43	Cc1cccc(N2CCN(C(=O)Cn3nc(C(=O)N4CC[C@H](O)[C@H](F)C4)c4c3CCCCC4)CC2)c1C [Example 412, 1-(4-(2,3-dimethylphenyl)piperazin-1-yl)-2-(3-((3R,4S)-3-fluoro-4-hydroxypiperidine-1-carbonyl)-5,6,7,8-tetrahydrocyclohepta[c]pyrazol-1(4H)-yl)ethanone]
9.29	Cc1cccc(N2CCN(C(=O)Cn3nc(C(=O)N4CC[C@H](O)[C@@H](F)C4)c4c3CCCCC4)CC2)c1C [Example 413, 1-(4-(2,3-dimethylphenyl)piperazin-1-yl)-2-(3-((3S,4S)-3-fluoro-4-hydroxypiperidine-1-carbonyl)-5,6,7,8-tetrahydrocyclohepta[c]pyrazol-1(4H)-yl)ethanone]
413	Cc1cccc(N2CCN(C(=O)Cn3nc(C(=O)N4CC[C@H](O)[C@@H](F)C4)c4c3CC(F)(F)C4)CC2)c1C [Example 424, 2-(5,5-difluoro-3-((3 S,4S)-3-fluoro-4-hydroxypiperidine-1-carbonyl)-5,6-dihydrocyclopenta[c]pyrazol-1(4H)-yl)-1-(4-(2,3-dimethylphenyl)piperazin-1-yl)ethan-1-one]
565	O=C(Cn1nc(C(=O)N2CC[C@H](O)[C@H](F)C2)c2c1CCC2)N1CCN(C2CCCc3ccccc32)CC1 (stereo partly drawn) [Example 425, 2-(3-((3R,4S)-3-fluoro-4-hydroxypiperidine-1-carbonyl)-5,6-dihydrocyclopenta[c]pyrazol-1(4H)-yl)-1-(4-(1,2,3,4-tetrahydronaphthalen-1-yl)piperazin-1-yl)ethanone]
85.7	C[C@@H]1CN(C(=O)c2nn(CC(=O)N3CCN(C4CCCc5ccccc54)CC3)c3c2CCC3)C[C@H](C)O1 (stereo partly drawn) [Example 428, 2-(3-((2S,6R)-2,6-dimethylmorpholine-4-carbonyl)-5,6-dihydrocyclopenta[c]pyrazol-1(4H)-yl)-1-(4-(1,2,3,4-tetrahydronaphthalen-1-yl)piperazin-1-yl)ethanone]
5.31	Cc1c(N2CCN(C(=O)Cn3nc(C(=O)N4CCC(O)(CF)CC4)c4c3CCC4)CC2)ccc(F)c1Cl [Example 445, 1-(4-(3-chloro-4-fluoro-2-methylphenyl)piperazin-1-yl)-2-(3-(4-(fluoromethyl)-4-hydroxypiperidine-1-carbonyl)-5,6-dihydrocyclopenta[c]pyrazol-1(4H)-yl)ethan-1-one]
206	C[C@@H]1CN(C(=O)c2nn(CC(=O)N3CCN(c4cccc5c4CC5)CC3)c3c2CCC3)C[C@H](C)O1 [Example 446, 1-(4-(bicyclo[4.2.0]octa-1(6),2,4-trien-2-yl)piperazin-1-yl)-2-(3-((2R,6S)-2,6-dimethylmorpholine-4-carbonyl)-5,6-dihydrocyclopenta[c]pyrazol-1(4H)-yl)ethanone]
12.7	Cc1cccc(N2CCN(C(=O)Cn3nc(C(=O)N4C[C@@H](C)O[C@@H](C)C4)c4c3CCC4)CC23CC3)c1C [Example 447, 2-(3-((2R,6S)-2,6-dimethylmorpholine-4-carbonyl)-5,6-dihydrocyclopenta[c]pyrazol-1(4H)-yl)-1-(4-(2,3-dimethylphenyl)-4,7-diazaspiro[2.5]octan-7-yl)ethanone]
1.05	Cc1cccc(N2CCN(C(=O)Cn3nc(C(=O)N4CCC(O)C(CO)C4)c4c3CCCC4)CC2)c1C (stereo not drawn) [Example 452, 1-(4-(2,3-dimethylphenyl)piperazin-1-yl)-2-(3-(4-hydroxy-3-(hydroxymethyl)piperidine-1-carbonyl)-4,5,6,7-tetrahydro-1H-indazol-1-yl) ethanone]
1.17	Cc1c(F)ccc(N2CCN(C(=O)Cn3nc(C(=O)N4CC[C@H](O)[C@@H](F)C4)c4c3CCCC4)CC2)c1C [Example 459, 1-(4-(4-fluoro-2,3-dimethylphenyl)piperazin-1-yl)-2-(3-((3S,4S)-3-fluoro-4-hydroxypiperidine-1-carbonyl)-4,5,6,7-tetrahydro-1H-indazol-1-yl)ethanone]
4.21	Cc1cccc(N2CCN(C(=O)Cn3nc(C(=O)N4CCO[C@H](CO)C4)c4c3CCCC4)CC2)c1C [Example 474, (S)-1-(4-(2,3-dimethylphenyl)piperazin-1-yl)-2-(3-(2-(hydroxymethyl)morpholine-4-carbonyl)-4,5,6,7-tetrahydro-1H-indazol-1-yl)ethanone]
128	Cc1c(F)cccc1N1CCN(C(=O)Cn2nc(C(=O)N3CC[C@H](O)[C@H](F)C3)c3c2CCC3)CC1 [Example 486, 1-(4-(3-fluoro-2-methylphenyl)piperazin-1-yl)-2-(3-((3R,4S)-3-fluoro-4-hydroxypiperidine-1-carbonyl)-5,6-dihydro-cyclopenta[c]pyrazol-1(4H)-yl)ethanone]

— patent US12264134B2 (Merck Sharp & Dohme LLC, priority 2018, dated 2025)
